Data from patent US20250197393A1, “INTEGRIN INHIBITOR AND USES THEREOF” (Pliant Therapeutics, Inc., priority 2023, published 2025).

Columns and labels:
Assay type in all cases: physicochemical
[1] = Bulk stability of solid under temperature/humidity stress (HPLC, appearance, XRPD); conditions: for purity decrease: listed as L-tartaric acid cocrystal Pattern A; for Bulk (XRPD) / Bulk (HPLC) purity, 316 nm: Solid state
Procedure: Bulk stability of (S)-4-((2-methoxyethyl)(4-(5,6,7,8-tetrahydro-1,8-naphthyridin-2-yl)butyl)amino)-2-(quinazolin-4-ylamino)butanoic acid L-tartaric acid cocrystal Pattern A was evaluated at 25° C./92.5% RH in an open container, at 40° C./75% RH in an open container, and at 60° C. in a closed container over 1 week and 4 weeks.
However, it became deliquescent after being stressed at 25° C./92.5% RH in an open container and at 40° C./75% RH in an open container after 1 week.

[2] = Water activity experiments in MeOH/water (relative stability of hydrate Pattern A and hydrate Pattern B); conditions: for water activity (a.w.) at which the pattern was obtained: methanol/water
Procedure: The relative stability of the hydrate Pattern A and the hydrate Pattern B was investigated using water activity experiments in MeOH/water systems. About 5 mg of (S)-4-((2-methoxyethyl)(4-(5,6,7,8-tetrahydro-1,8-naphthyridin-2-yl)butyl)amino)-2-(quinazolin-4-ylamino)butanoic acid L-tartaric acid cocrystal Pattern A and 5 mg of (S)-4-((2-methoxyethyl)(4-(5,6,7,8-tetrahydro-1,8-naphthyridin-2-yl)butyl)amino)-2-(quinazolin-4-ylamino)butanoic acid L-tartaric acid cocrystal Pattern B were added to 0.1-0.5 mL saturated solutions of the methanol/water system. Obtained suspensions were stirred at 5° C., 25° C. and 50° C. for up to 21 days, respectively. Solid parts (wet cakes) were isolated by centrifugation filtration and investigated by XRPD.

[3] = Compression study; conditions: 5 minutes; for XRPD after compression: hydraulic press
Procedure: (§1) About 20 mg of (S)-4-((2-methoxyethyl)(4-(5,6,7,8-tetrahydro-1,8-naphthyridin-2-yl)butyl)amino)-2-(quinazolin-4-ylamino)butanoic acid L-tartaric acid cocrystal Pattern A was compressed for 5 minutes under 2 MPa, 5 MPa and 10 MPa with a hydraulic press. Potential form change and degree of crystallinity were evaluated by XRPD.

[4] = Dry grinding; conditions: ground manually with mortar and pestle for 3 min
Procedure: as §1, with “ground manually” for “compressed for 5 minutes under 2 MPa, 5 MPa and 10 MPa”, “mortar and a pestle for 3 min.” for “hydraulic press.”

[5] = Wet granulation simulation
Procedure: Water or ethanol was added dropwise to about 20 mg of (S)-4-((2-methoxyethyl)(4-(5,6,7,8-tetrahydro-1,8-naphthyridin-2-yl)butyl)amino)-2-(quinazolin-4-ylamino)butanoic acid L-tartaric acid cocrystal Pattern A until the sample was wetted sufficiently. The wet sample was ground gently using a mortar and pestle. Post granulation sample was dried under ambient conditions for 30 min. The potential form change and degree of crystallinity were evaluated by XRPD.

[6] = VT-XRPD heating experiment; conditions: heated to 110° C. under dry nitrogen flow for about 30 min, then cooled to ambient (20-26° C., 20%-35% RH)
Procedure: The dried(S)-4-((2-methoxyethyl)(4-(5,6,7,8-tetrahydro-1,8-naphthyridin-2-yl)butyl)amino)-2-(quinazolin-4-ylamino)butanoic acid L-tartaric acid cocrystal Pattern A was also investigated by VT-XRPD experiments. The(S)-4-((2-methoxyethyl)(4-(5,6,7,8-tetrahydro-1,8-naphthyridin-2-yl)butyl)amino)-2-(quinazolin-4-ylamino)butanoic acid L-tartaric acid cocrystal Pattern A was heated to 110° C. under dry nitrogen flow for about 30 min and then cooled to ambient condition (20-26° C., 20%-35% RH). The obtained solid parts were investigated by XRPD.

[7] = Bulk stability of solid under temperature/humidity stress (HPLC, appearance, XRPD); conditions: 40° C./75% RH in an open container, 4 weeks; listed as L-tartaric acid cocrystal Pattern A
[8] = 40° C./75% RH, open container, 4 weeks
[9] = 60° C., closed container, 4 weeks, listed as L-Tartaric acid cocrystal Pattern A, hydrate

COCCN(CCCCc1ccc2c(n1)NCCC2)CC[C@H](Nc1ncnc2ccccc12)C(=O)O [Pattern A, (S)-4-((2-methoxyethyl)(4-(5,6,7,8-tetrahydro-1,8-naphthyridin-2-yl)butyl)amino)-2-(quinazolin-4-ylamino)butanoic acid]
purity decrease ([1]; 25° C./92.5% RH in an open container, 4 weeks): 0.9%
physical form after stress ([1]; 25° C./92.5% RH open, 40° C./75% RH open and 60° C. closed container, four weeks): remained the same form
physical stability ([1]; 25° C./92.5% RH open, 40° C./75% RH open and 60° C. closed container, over 4 weeks): physically stable
purity decrease ([1]; 60° C. in a closed container, 4 weeks): 0.9%
Bulk (XRPD) ([1]; 25° C./92.5% RH, open container, 1 week): No form change
Bulk (HPLC) purity, 316 nm ([1]; 25° C./92.5% RH, open container, 1 week, listed as L-Tartaric acid cocrystal Pattern A, hydrate): 99.2%
Bulk (XRPD) ([1]; 25° C./92.5% RH, open container, 4 weeks): No form change
Bulk (HPLC) purity, 316 nm ([1]; 25° C./92.5% RH, open container, 4 weeks, listed as L-Tartaric acid cocrystal Pattern A, hydrate): 98.5%
Bulk (XRPD) ([1]; 40° C./75% RH, open container, 1 week): No form change
Bulk (HPLC) purity, 316 nm ([1]; 40° C./75% RH, open container, 1 week, listed as L-Tartaric acid cocrystal Pattern A, hydrate): 98.9%
Bulk (HPLC) purity, 316 nm [1, 8]: 97.3%
Bulk (XRPD) [1, 8]: No form change
Bulk (XRPD) ([1]; 60° C., closed container, 1 week): No form change
Bulk (HPLC) purity, 316 nm ([1]; 60° C., closed container, 1 week, listed as L-Tartaric acid cocrystal Pattern A, hydrate): 99.1%
Bulk (HPLC) purity, 316 nm [1, 9]: 98.5%
Bulk (XRPD) [1, 9]: No form change
stability under stress conditions ([1]; open container, 25° C. and 92.5% relative humidity and 40° C. and 75% RH, up to four weeks): stable
bulk stability relative to the phosphate salt ([1]; various temperatures and relative humidities (BS1, BS2, BS3)): higher stability
thermodynamic stability based on water activity experiments ([2]; 0, 0.2, 0.4, 0.6, 0.8 and 1.0 water activity): thermodynamically stable
water activity (a.w.) at which the pattern was obtained ([2]; 5° C.): ≤ 0.8
water activity (a.w.) at which the pattern was obtained ([2]; 25° C.): ≤ 0.8
water activity (a.w.) at which the pattern was obtained ([2]; 50° C.): ≤ 1.0
degree of crystallinity after compression (XRPD) ([3]; 2 MPa, 5 MPa and 10 MPa): slight decrease in crystallinity
form change after compression (XRPD) ([3]; 2 MPa, 5 MPa and 10 MPa): no form change
XRPD after compression ([3]; 2 MPa): Pattern A
XRPD after compression ([3]; 5 MPa): Pattern A
XRPD after compression ([3]; 10 MPa): Pattern A
degree of crystallinity after dry grinding (XRPD) [4]: no obvious change in crystallinity
form change after dry grinding (XRPD) [4]: No form change
XRPD after wet granulation ([5]; Granulation solvent Ethanol): Pattern A
Comments (crystallinity after wet granulation) ([5]; Granulation solvent Water): Slight decrease in crystallinity
XRPD after wet granulation ([5]; Granulation solvent Water): Pattern A
XRPD after heating (VT-XRPD) [6]: no form change
purity decrease [7]: 2.1%
